According to US11072598B2, “Somatostatin modulators and uses thereof” (CRINETICS PHARMACEUTICALS, INC., priority 2017, dated 2021):

Target: T1, human somatostatin receptor subtype 2 (Homo sapiens, UniProt P30874)
T1 construct: expressed in transfected cells
Assay: cAMP functional assay for SSTR2 agonists
Format: cell-based
Settings: inhibition of cAMP activities via human SST2 receptor (SSTR2), CHO-K1 cells; read-out: EC50
Description: General overview: All five SSTR subtypes are Gi coupled G-protein coupled receptors (GPCRs) that lead to decreases in intracellular cyclic AMP (cAMP) when activated by an agonist. Therefore, measurement of intracellular cAMP levels can be used to assess whether compounds of the invention are agonists of SSTR subtypes (John Kelly, Troy Stevens, W. Joseph Thompson, and Roland Seifert, Current Protocols in Pharmacology, 2005, 2.2.1-2.2). One example of an intracellular cAMP assay is described below. cAMP assay protocol:
Four days prior to the assay, 5,000 Chinese hamster ovary cells (CHO-K1, ATCC #CCL-61) stably expressing the human somatostatin receptor subtype 2 are plated in each well of a 96-well tissue culture-treated plate in Ham's F12 growth media (ThermoFisher #10-080-CM) supplemented with 10% donor bovine serum (Gemini Bio-Products #100-506), 100 U/mL penicillin; 100 ug/mL streptomycin; 2 mM L-glutamine (Gemini Bio-Products #400-110) and 0.2 mg/mL hygromycin B (GoldBio #31282-04-9). The cells are cultured at 37° C., 5% CO2 and 95% humidity. On the day of the assay, the media is aspirated and the cells are treated with 50 μL of 1.6 μM NKH477 (Sigma #N3290) plus various dilutions of compounds of the invention in assay buffer [1× Hank's Balanced Salt Solution (ThermoFisher #SH3058802), 0.5 mM HEPES pH 7.4, 0.1% bovine serum albumin, 0.2 mM 3-Isobutyl-1-methylxanthine (IBMX, VWR #200002-790)]. The cells are incubated for 20 minutes at 37° C. […] The cells are treated with 50 μL of lysis buffer (HRTF cAMP kit, Cisbio). The lysate is transferred to 384-well plates and cAMP detection and visualization antibodies are added and incubated for 1-24 hours at room temperature. The time-resolved fluorescent signal is read with a Tecan M1000Pro multiplate reader. The intracellular cAMP concentrations are calculated by regression to a standard curve and are plotted vs. the concentration of the compounds of the invention and the EC50 of the compounds are calculated using standard methods. All data manipluations are in GraphPad Prism v6.

T1 sequence (P30874 whole entry): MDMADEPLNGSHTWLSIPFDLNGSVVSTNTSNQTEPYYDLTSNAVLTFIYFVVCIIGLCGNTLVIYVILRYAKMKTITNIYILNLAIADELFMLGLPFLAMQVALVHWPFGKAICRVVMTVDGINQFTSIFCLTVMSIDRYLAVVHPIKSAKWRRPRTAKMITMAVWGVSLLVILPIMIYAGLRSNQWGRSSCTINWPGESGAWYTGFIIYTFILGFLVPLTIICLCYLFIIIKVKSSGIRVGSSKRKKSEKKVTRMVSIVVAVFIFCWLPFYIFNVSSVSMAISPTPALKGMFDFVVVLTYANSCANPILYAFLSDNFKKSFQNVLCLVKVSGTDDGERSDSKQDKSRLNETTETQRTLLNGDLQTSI

Row | Compound | EC50 [nM]
1 | COc1ncc(-c2cc(C)cc(F)c2)c(N2CCC(N)CC2)c1-c1nc2cc(Cl)ncc2[nH]1 [Compound 2-9] | < 10
2 | COC(=O)Nc1cccc2nc(-c3c(N)ncc(-c4cc(C)cc(F)c4)c3N3CCC(N)CC3)[nH]c12 [Compound 1-27, methyl N-{2-[2-amino-4-(4-aminopiperidin-1-yl)-5-(3-fluoro-5-methylphenyl)pyridin-3-yl]-1H-1,3-benzodiazol-7-yl}carbamate] | < 10
3 | Cc1cc(F)cc(-c2cnc(N)c(-c3nc4ccc(F)c(F)c4[nH]3)c2N2CCC(N)CC2)c1 [Compound 1-15, 4-(4-aminopiperidin-1-yl)-3-(6,7-difluoro-1H-1,3-benzodiazol-2-yl)-5-(3-fluoro-5-methylphenyl)pyridin-2-amineine] | < 10
4 | COc1cc(F)cc2nc(-c3c(N)ncc(-c4cccc(C)c4)c3N3CCC(N)CC3)[nH]c12 [Compound 1-93, 4-(4-aminopiperidin-1-yl)-3-(5-fluoro-7-methoxy-1H-1,3-benzodiazol-2-yl)-5-(3-methylphenyl)pyridin-2-amine] | < 10
5 | Cc1cc(F)cc(-c2cnnc(-c3cc4ccc(C(N)=O)cc4[nH]3)c2N2CCC(N)CC2)c1 [Compound 3-19, 2-[4-(4-aminopiperidin-1-yl)-5-(3-fluoro-5-methylphenyl)pyridazin-3-yl]-1H-indole-6-carboxamide] | < 10
6 | CON=Cc1ccc2[nH]c(-c3c(N)ncc(-c4cc(C)cc(F)c4)c3N3CCC(N)CC3)nc2c1 [Compound 1-40, 4-(4-aminopiperidin-1-yl)-5-(3-fluoro-5-methylphenyl)-3-{5-[(methoxyimino)methyl]-1H-1,3-benzodiazol-2-yl}pyridin-2-amine] | < 10
7 | Cc1cc(F)cc(-c2cnc(N)c(-c3nc4cc(N5CC(F)C5)ccc4[nH]3)c2N2CCC(N)CC2)c1 [Compound 1-26, 4-(4-aminopiperidin-1-yl)-5-(3-fluoro-5-methylphenyl)-3-[5-(3-fluoroazetidin-1-yl)-1H-1,3-benzodiazol-2-yl]pyridin-2-amine] | < 10
8 | CON=Cc1cc(OC)c2[nH]c(-c3c(N)ncc(-c4cc(C)cc(F)c4)c3N3CCC(N)CC3)nc2c1 [Compound 1-76, 4-(4-aminopiperidin-1-yl)-5-(3-fluoro-5-methylphenyl)-3-{7-methoxy-5-[(methoxyimino)methyl]-1H-1,3-benzodiazol-2-yl}pyridin-2-amine] | < 10
9 | CNC1CCN(c2c(-c3cc(C)cc(F)c3)cnc(N)c2-c2nc3cc(F)cc(OC)c3[nH]2)CC1 [Compound 4-10, 3-(5-fluoro-7-methoxy-1H-1,3-benzodiazol-2-yl)-5-(3-fluoro-5-methylphenyl)-4-[4-(methylamino)piperidin-1-yl]pyridin-2-amine] | < 10
10 | COc1cc(F)c2[nH]c(-c3c(N)ncc(-c4cc(C)cc(C)c4)c3N3CCC(N)CC3)nc2c1 [Compound 1-84] | < 10
11 | CONC(=O)c1cccc2nc(-c3c(N)ncc(-c4cc(C)cc(F)c4)c3N3CCC(N)CC3)[nH]c12 [Compound 1-17, 2-[2-amino-4-(4-aminopiperidin-1-yl)-5-(3-fluoro-5-methylphenyl)pyridin-3-yl]-N-methoxy-1H-1,3-benzodiazole-7-carboxamide] | 10 to 100
12 | CNc1ncc(-c2cc(C)cc(F)c2)c(N2CCC(N)CC2)c1-c1nc2ccc(C#N)cc2[nH]1 [Compound 1-70, 2-[4-(4-aminopiperidin-1-yl)-5-(3-fluoro-5-methylphenyl)-2-(methylamino)pyridin-3-yl]-1H-1,3-benzodiazole-6-carbonitrile] | < 10
13 | 4-(4-aminopiperidin-1-yl)-5-(3-fluoro-5-methylphenyl)-3-{5-[(hydroxyimino)methyl]-1H-1,3-benzodiazol-2-yl}pyridin-2-amine [Compound 1-47] | < 10
14 | COc1cc(C)cc(-c2cnc(N)c(-c3nc4cc(F)cc(F)c4[nH]3)c2N2CCC(N)CC2)c1 [Compound 1-80, 4-(4-aminopiperidin-1-yl)-3-(5,7-difluoro-1H-1,3-benzodiazol-2-yl)-5-(3-methoxy-5-methylphenyl)pyridin-2-amine] | < 10
15 | CNc1ncc(-c2cc(C)cc(F)c2)c(N2CCC(NC)CC2)c1-c1nc2cc(Cl)ccc2[nH]1 [Compound 4-1, 3-(5-chloro-1H-1,3-benzodiazol-2-yl)-5-(3-fluoro-5-methylphenyl)-N-methyl-4-[4-(methylamino)piperidin-1-yl]pyridin-2-amine] | < 10
16 | Cc1cc(F)cc(-c2cnnc(-c3cc4ccc(F)cc4[nH]3)c2N2CCC(N)CC2)c1 [Compound 3-4, 1-[3-(6-fluoro-1H-indol-2-yl)-5-(3-fluoro-5-methylphenyl)pyridazin-4-yl]piperidin-4-amine] | < 10
17 | Nc1ncc(-c2cc(F)cc(F)c2)c(N2CCC(N)CC2)c1-c1nc2cc(OC(F)(F)F)ccc2[nH]1 [Compound 1-86, 4-(4-aminopiperidin-1-yl)-5-(3,5-difluorophenyl)-3-[5-(trifluoromethoxy)-1H-1,3-benzodiazol-2-yl]pyridin-2-amine] | < 10
18 | Cc1cc(F)cc(-c2cnc(N)c(-c3nc4cccc(C#N)c4[nH]3)c2N2CCC(N)CC2)c1 [Compound 1-21, 2-[2-amino-4-(4-aminopiperidin-1-yl)-5-(3-fluoro-5-methylphenyl)pyridin-3-yl]-1H-1,3-benzodiazole-7-carbonitrile] | < 10
19 | N#CCOc1cc(F)c2[nH]c(-c3c(N)ncc(-c4cc(F)cc(Cl)c4)c3N3CCC(N)CC3)nc2c1 [Compound 1-88, 2-({2-[2-amino-4-(4-aminopiperidin-1-yl)-5-(3-chloro-5-fluorophenyl)pyridin-3-yl]-7-fluoro-1H-1,3-benzodiazol-5-yl}oxy)acetonitrile] | < 10
20 | Cc1cc(F)cc(-c2cnnc(-c3cc4cc(Cl)ccc4[nH]3)c2N2CCC(N)CC2)c1 [Compound 3-1, 1-[3-(5-chloro-1H-indol-2-yl)-5-(3-fluoro-5-methylphenyl)pyridazin-4-yl]piperidin-4-amine] | < 10
21 | Cc1cc(F)cc(-c2cnnc(-c3cc4ccc(-c5nn[nH]n5)cc4[nH]3)c2N2CCC(N)CC2)c1 [Compound 3-15, 1-[5-(3-fluoro-5-methylphenyl)-3-[6-(2H-1,2,3,4-tetrazol-5-yl)-1H-indol-2-yl]pyridazin-4-yl]piperidin-4-amine] | > 100
22 | Cc1cc(F)cc(-c2cnc(N)c(-c3cc4ccc(C#N)cc4[nH]3)c2N2CCC(N)CC2)c1 [Compound 1-33, 2-[2-amino-4-(4-aminopiperidin-1-yl)-5-(3-fluoro-5-methylphenyl)pyridin-3-yl]-1H-indole-6-carbonitrile] | < 10
23 | N#CCOc1cc(F)cc2nc(-c3c(N)ncc(-c4cc(F)cc(Cl)c4)c3N3CCC(N)CC3)[nH]c12 [Compound 1-87, 2-({2-[2-amino-4-(4-aminopiperidin-1-yl)-5-(3-chloro-5-fluorophenyl)pyridin-3-yl]-5-fluoro-1H-1,3-benzodiazol-7-yl}oxy)acetonitrile] | < 10
24 | COc1cccc2nc(-c3c(N(C)C)ncc(-c4cc(C)cc(F)c4)c3N3CCC(N)CC3)[nH]c12 [Compound 4-4, 4-(4-aminopiperidin-1-yl)-5-(3-fluoro-5-methylphenyl)-3-(7-methoxy-1H-1,3-benzodiazol-2-yl)-N,N-dimethylpyridin-2-amine] | < 10
25 | Cc1cc(F)cc(-c2cnnc(-c3[nH]c4cc(Cl)ccc4c3Cl)c2N2CCC(N)CC2)c1 [Compound 3-14, 1-[3-(3,6-dichloro-1H-indol-2-yl)-5-(3-fluoro-5-methylphenyl)pyridazin-4-yl]piperidin-4-amine] | < 10
26 | Cc1cc(Cl)cc(-c2cnc(N)c(-c3nc4cc(F)cc(F)c4[nH]3)c2N2CCC(N)CC2)c1 [Compound 1-79, 4-(4-aminopiperidin-1-yl)-5-(3-chloro-5-methylphenyl)-3-(5,7-difluoro-1H-1,3-benzodiazol-2-yl)pyridin-2-amine] | < 10
27 | Cc1cc(F)cc(-c2cnc(N)c(-c3nc4cc(OC5COC5)ccc4[nH]3)c2N2CCC(N)CC2)c1 [Compound 1-16, 4-(4-aminopiperidin-1-yl)-5-(3-fluoro-5-methylphenyl)-3-[5-(oxetan-3-yloxy)-1H-1,3-benzodiazol-2-yl]pyridin-2-amine] | < 10
28 | Cc1cc(Cl)cc(-c2cnc(N)c(C=NOC(C)C)c2N2CCC(N)CC2)c1 [Compound 1-37] | < 10
29 | CNc1ncc(-c2cc(C)cc(F)c2)c(N2CCC(N)CC2)c1-c1nc2cc(C#N)cc(F)c2[nH]1 [Compound 1-89, 2-[4-(4-aminopiperidin-1-yl)-5-(3-fluoro-5-methylphenyl)-2-(methylamino)pyridin-3-yl]-7-fluoro-1H-1,3-benzodiazole-5-carbonitrile] | < 10
